Results on three compounds are retold here after patent publication JPH07118153A, “抗ウレアーゼ剤” (Eisai Co Ltd, priority 1993, dated 1995).

The target of data set [1] is T1, H. pylori-produced urease [H.pylori産生ウレアーゼ] (Helicobacter pylori, UniProt P69996). To be noted: cited from earlier work; for inhibition of H. pylori-produced urease: Antimicrobial Agents and Chemotherapy, 37(4), 769-774, 1993.
Target sequence in this assay (P69996 whole entry): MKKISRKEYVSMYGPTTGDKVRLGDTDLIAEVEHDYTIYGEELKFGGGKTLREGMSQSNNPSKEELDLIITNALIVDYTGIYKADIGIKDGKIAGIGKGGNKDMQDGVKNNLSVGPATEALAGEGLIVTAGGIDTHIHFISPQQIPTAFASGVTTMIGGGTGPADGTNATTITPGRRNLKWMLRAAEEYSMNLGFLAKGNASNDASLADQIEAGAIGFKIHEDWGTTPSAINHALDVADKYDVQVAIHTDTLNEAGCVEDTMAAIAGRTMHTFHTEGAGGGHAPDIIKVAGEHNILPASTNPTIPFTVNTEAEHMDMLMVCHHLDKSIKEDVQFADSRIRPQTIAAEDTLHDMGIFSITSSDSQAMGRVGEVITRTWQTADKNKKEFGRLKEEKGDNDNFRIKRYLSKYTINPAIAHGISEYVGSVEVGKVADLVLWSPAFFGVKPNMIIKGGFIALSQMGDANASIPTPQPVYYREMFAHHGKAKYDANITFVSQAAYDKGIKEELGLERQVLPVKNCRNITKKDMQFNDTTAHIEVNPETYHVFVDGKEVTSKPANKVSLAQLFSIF
Target sequence in this assay (P14916 whole entry, further chain): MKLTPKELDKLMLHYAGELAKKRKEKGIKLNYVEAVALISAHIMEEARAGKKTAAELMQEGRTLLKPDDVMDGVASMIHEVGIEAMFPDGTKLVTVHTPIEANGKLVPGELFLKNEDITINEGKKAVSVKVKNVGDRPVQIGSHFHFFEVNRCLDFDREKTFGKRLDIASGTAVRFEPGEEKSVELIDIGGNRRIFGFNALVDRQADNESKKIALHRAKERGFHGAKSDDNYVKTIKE
The subject of data set [2] is a wide range of ureases [幅広い種類のウレアーゼ]. Kind of data set: Urease inhibition across ureases (tables 2 and 4 taken together). The data set is classed as biochemical. To be noted: from tables 2 and 4.
In data set [3] the target is jack bean urease [なた豆ウレアーゼ] (Canavalia ensiformis, UniProt P07374). The data set is described as follows: Inhibition of jack bean urease (inhibition test example 1). The data set is classed as biochemical. To be noted: from tables 2 and 4.
jack bean urease [なた豆ウレアーゼ], sequence (P07374 whole entry, looked up): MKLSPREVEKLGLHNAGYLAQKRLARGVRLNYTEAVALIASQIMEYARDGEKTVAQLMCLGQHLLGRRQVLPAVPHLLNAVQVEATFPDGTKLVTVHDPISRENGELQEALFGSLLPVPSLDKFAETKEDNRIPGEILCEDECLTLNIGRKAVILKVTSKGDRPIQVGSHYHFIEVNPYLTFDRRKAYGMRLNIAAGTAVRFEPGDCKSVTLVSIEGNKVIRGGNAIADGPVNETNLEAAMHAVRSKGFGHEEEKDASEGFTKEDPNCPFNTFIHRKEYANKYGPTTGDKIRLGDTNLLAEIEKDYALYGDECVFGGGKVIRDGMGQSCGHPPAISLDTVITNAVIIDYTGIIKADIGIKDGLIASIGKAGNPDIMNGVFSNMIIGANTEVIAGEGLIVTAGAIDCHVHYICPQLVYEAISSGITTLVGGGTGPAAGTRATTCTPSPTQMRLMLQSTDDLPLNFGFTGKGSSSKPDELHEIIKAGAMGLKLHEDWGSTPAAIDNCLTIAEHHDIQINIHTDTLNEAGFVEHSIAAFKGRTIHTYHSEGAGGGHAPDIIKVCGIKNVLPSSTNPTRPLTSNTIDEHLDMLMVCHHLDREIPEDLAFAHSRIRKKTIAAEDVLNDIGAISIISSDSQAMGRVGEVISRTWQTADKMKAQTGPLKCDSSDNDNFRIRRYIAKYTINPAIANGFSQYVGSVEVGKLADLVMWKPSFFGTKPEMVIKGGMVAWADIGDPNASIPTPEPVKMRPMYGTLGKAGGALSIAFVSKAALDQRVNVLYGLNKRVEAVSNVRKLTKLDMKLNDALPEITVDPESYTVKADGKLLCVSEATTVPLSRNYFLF
Data set [4] is described as follows: Acute toxicity test, single dose, intravenous and oral. The data set is classed as in vivo, Slc:SD rats and Slc:ICR mice. To be noted: rats and mice.
The target in data set [5] is T1, H. pylori-produced urease [H.pylori産生ウレアーゼ]. The data set is classed as biochemical, Helicobacter pylori (ATCC43504).
Target sequence in this assay (P69996 whole entry, looked up): as the sequence (P69996 whole entry) above

SMILES strings stand for the structures.

For `COc1ccc2[nH]c([S+]([O-])Cc3ncc(C)c(OC)c3C)nc2c1` (stereo not shown) [オメプラゾール, 5−メトキシ−2−(4−メトキシ−3,5−ジメチルピリジン−2−イル)メチルスルフィニル−1H−ベンズイミダゾール], the “inhibition of H. pylori-produced urease” value in data set [1] is listed as “阻害する”.

Take `Cc1c(OCC(F)(F)F)ccnc1C[S+]([O-])c1nc2ccccc2[nH]1` (stereo not shown) [ランソプラゾール, 2−[3−メチル−4−(2,2,2−トリフルオロエトキシ)ピリジン−2−イル]メチルスルフィニル−1H−ベンズイミダゾール]: the “inhibition of H. pylori-produced urease” value in data set [1] is “阻害する”. In addition, the “anti-urease activity relative to acetohydroxamic acid” value in data set [1] (disclosed in Antimicrobial Agents and Chemotherapy, compared with acetohydroxamic acid) is approximately 2 fold.

With `COCCCOc1ccnc(C[S+]([O-])c2nc3ccccc3[nH]2)c1C` (stereo not shown) [本発明化合物, 2−[4−(3−メトキシプロポキシ)−3−メチルピリジン−2−イル]メチルスルフィニル−1H−ベンズイミダゾール], the “inhibitory action on a wide range of ureases” value in data set [2] is given as “阻害作用を示した”. Besides, in data set [3], the “inhibitory action on jack bean urease” value is recorded as “阻害作用も有しており”. For the same compound, the selectivity ratio in data set [4] (in vivo, intravenous and oral, multiple of the clinical dose by oral administration, read-out: LD50 values relative to the oral clinical dose) is not below 5000. Besides, in data set [4] (judged from LD50 values), the safety result is “安全性は極めて高い”. For the same compound, in data set [5], the “H. pylori-produced urease inhibitory action” value is “阻害作用を有している”. The “activity relative to control substance (times stronger)” value in data set [5] (H. pylori-produced urease, control substance acetohydroxamic acid) is reported as approximately 100 fold. The “inhibitory activity on H. pylori-produced urease, compared with reference substances” value in data set [5] (versus acetohydroxamic acid, caprylohydroxamic acid, nicotinohydroxamic acid, benzohydroxamic acid, omeprazole and lansoprazole, from tables 2, 3 and 4) is listed as “優れた阻害活性を有する”.
